“Also recorded” adds a separate entry of the source. Where a name gives a salt, the structure may show the parent alone. Read-outs that look alike come from different tables or passages of the source.
Experiments:
HLA-ABC = HLA-ABC immunofluorescence; type: cell-based, human; conditions: for Emax / IC50: Homo sapiens; for Emax: read-out: Immunofluorescence Efficacy
C25cl48 cells = experiment: IF cell count cytotoxicity; type: cell-based, human; conditions: for Cell count Curve class: IF cell count cytotoxicity
HLA-B mRNA = experiment: HLA-B RT-qPCR tertiary assay; type: cell-based, human; conditions: for IC50: read-out: RT-qPCR IC50; for Emax: read-out: RT-qPCR Efficacy
[1] = tested on: type I IFN – MHC class I pathway; experiment: Average / all assays; type: cell-based, human; conditions: for IC50: read-out: Average IC50; for hill slope: concentration-response curves
IFIT1 = experiment: Multi Gene RT-qPCR, IFIT1; type: cell-based, human; conditions: compared to IFN-β treated cells; 4.0 ng/ml IFN-β plus 50 uM compound, 24 hrs
ISG15 = experiment: Multi Gene RT-qPCR, ISG15; type: cell-based, human; conditions: compared to IFN-β treated cells; 4.0 ng/ml IFN-β plus 50 uM compound, 24 hrs
HLA and ISG genes = experiment: Multi Gene RT-qPCR, gene panel; type: cell-based, human; conditions: 4.0 ng/ml IFN-β plus 50 uM compound, 24 hrs; for effect on HLA and ISG gene expression (in words): C25cl48 cells
HLA-B HiBit cells = experiment: CellTiter-Glo; conditions: for CTG Efficacy: IFN-β = 0%, 92 uM Digitonin = −100% activity; for IC50: read-out: CTG IC50
[2] = tested on: HLA-B HiBit (MHC class I); experiment: HLA-B HiBit luminescent reporter assay; conditions: for HiBit Efficacy: 4.0 ng/ml IFN-β, IFN-β = 0%, DMSO alone = −100% activity; for Emax: read-out: HiBit Efficacy
STAT1 = experiment: Western blot, STAT1 phosphorylation; type: cell-based, human; conditions: C25cl48 cells, 0.5 hrs, 4.0 ng/ml IFN-β plus IC95 concentration of compound
HLA-C = experiment: Multi Gene RT-qPCR, HLA-C; type: cell-based, human; conditions: compared to IFN-β treated cells; 4.0 ng/ml IFN-β plus 50 uM compound, 24 hrs
MX1 = experiment: Multi Gene RT-qPCR, MX1; type: cell-based, human; conditions: compared to IFN-β treated cells; 4.0 ng/ml IFN-β plus 50 uM compound, 24 hrs
[3] = cited from earlier work
[4] = cited from earlier work; remark: listed apart in the source
[5] = 37.5 and 50 mg b.i.d. ref 43, 44; cited from earlier work
HLA-A = experiment: Multi Gene RT-qPCR, HLA-A; type: cell-based, human; conditions: 4.0 ng/ml IFN-β plus 50 uM compound, 24 hrs
[6] = tested on: IL-6 stimulation of whole blood; conditions: IL-6 stimulation of whole blood ref 20; cited from earlier work
[7] = HLA-ABC+ C25cl48 cells, IFN-β-stimulated, prednisolone acetate used for IF
[8] = HLA-B mRNA, C25cl48 cells, 4.0 ng/mL IFN-β
[9] = average of HiBit, Immunofluorescence, RT-qPCR
[10] = cytotoxicity, 4.0 ng/ml IFN-β, 24 hours
[11] = HLA-B HiBit clone AB-7 cells, 24 hours
[12] = read-out: HiBit IC50, HLA-B HiBit clone AB-7 cells, 4.0 ng/ml IFN-β plus compound titration, 24 hours
[13] = read-out: Immunofluorescence IC50
[14] = compared to IFN-β treated cells

| SMILES | Cell count Curve class (C25cl48 cells; C25cl48 cells) | efficacy in reducing all HLA and ISG genes (HLA and ISG genes) | effect on HLA and ISG gene expression (in words) (HLA and ISG genes) | CTG Curve class (HLA-B HiBit cells; [10]) | HiBit Efficacy [2, 11] [%] | Emax (HLA-ABC) [%] | Emax (HLA-B mRNA; Homo sapiens) [%] | IC50 (HLA-ABC; [13]) [µM] | IC50 (HLA-B mRNA; Homo sapiens) [µM] | IC50 ([1]; Homo sapiens) [µM] | Emax ([2]; Homo sapiens, 24 h) [%] | further results |
| --- | --- | --- | --- | --- | --- | --- | --- | --- | --- | --- | --- | --- |
| Cc1sc2c(c1C)C(c1ccc(Cl)cc1)=N[C@@H](CC(=O)Nc1ccc(OCCOCCOCCOCCNc3cccc4c3C(=O)N(C3CCC(=O)NC3=O)C4=O)cc1)c1nnc(C)n1-2 (stereo partly shown) [ARV-825] | 4 | low efficacy | reduced IFIT1 while increasing ISG15 | −1b | 71 |  |  |  |  |  |  | Immunofluorescence Efficacy (HLA-ABC; [7]): 82%; RT-qPCR Curve class (HLA-B mRNA; [8]): −1b; RT-qPCR Efficacy (HLA-B mRNA; [8]): 43%; IC50 (HLA-B mRNA; [8]): 0.065 µM; Average Curve class [1, 9]: −1b; Average Efficacy [1, 9]: 65%; IC50 [1, 9]: 0.084 µM; decrease of IFIT1 mRNA (IFIT1): 84%; increase of ISG15 mRNA (ISG15): 2.8 fold; CTG Efficacy (HLA-B HiBit cells; cytotoxicity): 8%; IC50 (HLA-B HiBit cells; [10]): 0.053 µM; IC50 [2, 12]: 0.097 µM |
| CCS(=O)(=O)N1CC(CC#N)(n2cc(-c3ncnc4[nH]ccc34)cn2)C1 [Baricitinib, baricitinib] | 4 |  |  | 4 | 100 | 100 | 100 |  |  |  |  | phosphorylation of STAT1 (STAT1): prevented phosphorylation of STAT1 |
| COc1ccc(-c2nc(N3CCOCC3)c3sc(CN(C)c4ncc(C(=O)NO)cn4)cc3n2)cn1 [CUDC-907] | −3 | 70–80% | reduced 3 genes | −1b |  | 100 | 73 | 0.0058 | 0.023 | 0.019 | 86 | Cell count Efficacy at highest concentration (C25cl48 cells): (10) %; decrease of HLA-C mRNA (HLA-C): ~ 75%; decrease of IFIT1 mRNA (IFIT1): ~ 75%; decrease of MX1 mRNA (MX1): ~ 75%; IC50 (HLA-B HiBit cells; Homo sapiens, 24 h): 3.5 µM; CTG Efficacy (HLA-B HiBit cells; cytotoxicity): 40% |
| CCc1cnn2c(NCc3ccc[n+]([O-])c3)cc(N3CCCC[C@H]3CCO)nc12 [Dinaciclib, dinaciclib] | 4 |  | did not decrease any of the other genes tested; also recorded: increased HLA-C, ISG15, and MX1 | 4 |  | 100 | 117 |  |  |  | 100 | increase of HLA-C mRNA (HLA-C): ~ 3.3 fold; increase of ISG15 mRNA (ISG15): ~ 3.3 fold; increase of MX1 mRNA (MX1): ~ 3.3 fold; common adverse events [3]: leukopenia, thrombocytopenia, gastrointestinal symptoms, alopecia, and fatigue |
| CS[C@H]1SC[C@H]2C(=O)N(C)[C@@H](C(C)C)C(=O)OC[C@@H](NC(=O)c3cnc4ccccc4n3)C(=O)N[C@@H](C)C(=O)N(C)[C@@H]1C(=O)N(C)[C@@H](C(C)C)C(=O)OC[C@@H](NC(=O)c1cnc3ccccc3n1)C(=O)N[C@@H](C)C(=O)N2C [Echinomycin, echinomycin] | 4 | > 99% | normalized all genes | 4 |  | 120 | 112 | 0.0041 | 0.003 | 0.006 | 100 | hill slope [1]: ultrasensitive; adverse effects in Phase I clinical trial [4]: nausea, vomiting, reversible liver enzyme abnormalities, and allergic reactions |
| CCN(CC)Cc1ccc2cc(COC(=O)Nc3ccc(C(=O)NO)cc3)ccc2c1 [Givinostat HCl, Givinostat] | −3 | 70–80% | normalized HLA-A and -B to DMSO levels | −3 |  | 100 | 100 | 0.26 | 4.1 | 1.8 | 82 | Cell count Efficacy at highest concentration (C25cl48 cells): (25) %; decrease of ISGs (IFIT1, ISG15, MX1) (HLA and ISG genes; [14]): ~ 90%; safety signal at higher doses [5]: platelet count decrease; CTG Efficacy at highest concentration (HLA-B HiBit cells): (18) % |
| COc1cccc2c1C(=O)c1c(O)c3c(c(O)c1C2=O)C[C@@](O)(C(=O)CO)C[C@@H]3O[C@H]1C[C@H](N2CCO[C@H](OC)C2)[C@H](O)[C@H](C)O1 [Nemorubicin, nemorubicin] | 4 | > 99% | normalized all genes | 4 |  | 107 | 133 | 0.07 | 0.092 | 0.104 | 100 |  |
| Cc1[nH]c2ccccc2c1CCNCc1ccc(/C=C/C(=O)NO)cc1 [Panobinostat, panobinostat] | 4 | 70–80% |  | −3 |  | 111 | 68 | 0.028 | 0.029 | 0.04 | 86 | potency relative to givinostat at inhibiting IFN-β-MHC class I pathway [1]: 45 x; effect on HLA-A mRNA (HLA-A): no effect; decrease of all genes tested except HLA-A (HLA and ISG genes; [14]): ~ 80%; CTG Efficacy at highest concentration (HLA-B HiBit cells): (25) % |
| C[C@]12C=CC(=O)C=C1CC[C@@H]1[C@@H]2[C@@H](O)C[C@@]2(C)[C@H]1CC[C@]2(O)C(=O)CO [Prednisolone] | 4 |  | increased ISG15 and MX1 | 4 |  | 31 | 14 |  | 0.03 | 0.043 |  | increase of ISG15 mRNA (ISG15): ~ 3.4 fold; increase of MX1 mRNA (MX1): ~ 3.4 fold |
| N#CC[C@H](C1CCCC1)n1cc(-c2ncnc3[nH]ccc23)cn1 [Ruxolitinib, ruxolitinib] | 4 |  |  | 4 | 100 | 100 | 115 | 0.88 | 1.6 | 1.2 |  | IC50 (HLA-ABC; 48 h, read-out: IC50, HLA-ABC+ cells control titration): 3.5 µM; cell count response in control titrations (C25cl48 cells; C25cl48 cells, 48 hrs): bell shaped viability curve; phosphorylation of STAT1 (STAT1): prevented phosphorylation of STAT1; IC50 [6]: 0.282 ± 0.054 µM; CTG viability response in control titrations (HLA-B HiBit cells; HLA-B HiBit cells, 24 hrs): slight bell-shaped curve; IC50 ([2]; Homo sapiens, 24 h, read-out: HiBit IC50): 1.1 µM; IC50 ([2]; Homo sapiens, 24 h, read-out: IC50, HiBit control titration): 0.34 ± 0.036 µM |
| C[C@@H]1CCN(C(=O)CC#N)C[C@@H]1N(C)c1ncnc2[nH]ccc12 [Tofacitinib, tofacitinib] | 4 |  |  | 4 | 100 | 100 | 83 |  |  |  |  | phosphorylation of STAT1 (STAT1): prevented phosphorylation of STAT1 |
| CC(C)[C@]12O[C@H]1[C@@H]1O[C@@]13[C@@]1(C)CCC4=C(COC4=O)[C@@H]1C[C@@H]1O[C@@]13C2=O [Triptonide, triptonide] | 4 | > 99% | normalized all genes | 4 | 100 |  |  |  |  |  |  | Immunofluorescence Curve class (HLA-ABC; [7]): −1a; Immunofluorescence Efficacy (HLA-ABC; [7]): 100%; RT-qPCR Curve class (HLA-B mRNA; [8]): −1a; RT-qPCR Efficacy (HLA-B mRNA; [8]): 113%; IC50 (HLA-B mRNA; [8]): 0.5 µM; Average Curve class [1, 9]: −1a; Average Efficacy [1, 9]: 104%; hill slope [1]: ultrasensitive; IC50 [1, 9]: 0.246 µM; HiBit Curve class ([2]; HLA-B HiBit clone AB-7 cells, 4.0 ng/ml IFN-β plus compound titration, 24 hours): −1a; IC50 [2, 12]: 0.047 µM |
| CC(C)[C@]12O[C@H]1[C@@H]1O[C@]13[C@]1(O[C@H]1C[C@H]1C4=C(CC[C@@]13C)C(=O)OC4)[C@@H]2O [triptolide] |  |  |  |  |  |  |  |  |  |  |  | hill slope [1]: ultrasensitive |

From PMC7859889 (ACS chemical biology, 2020)
